Measurements: patent publication US8921424B2, “Histone deacetylase inhibitors, process for preparation and uses thereof” (Zhejiang Hisun Pharmaceutical Co. Ltd., priority 2007, dated 2014)
Read-outs that look alike come from different tables or passages of the source.

Experiments:
HDACs = assay: In vitro HDACi assay (BIOMOL fluorescent-based HDAC activity assay); assay type: biochemical
Protocol: (§1) In Vitro HDACi Assay for Determination of IC50 Values
(§2) The assay has been carried out in white 96 well formats according to the BIOMOL's method. […] The reaction mixture was incubated at room temperature for 2 hours. Flur de lys Developer was added and the reaction was incubated for 10 min. Briefly, deacetylation of the substrate sensitizes to the developer, which then generates a fluorophore. The fluorophore is excited with 360 nm light and the emitted light (460 nm) is detected on a fluorometric plate reader (Molecular Device Ultra Microplate detection system, MD Group Ltd).
(§3) The analytical software, Prism 4.0 (GraphPad Software Inc) has been used to generate IC50 from a series of data.

HDAC6 = HDAC6 (Homo sapiens (Human), UniProt Q9UBN7); assay: In vitro HDACi assay, HDAC6; assay type: biochemical
HDAC6, sequence (Q9UBN7 whole entry, species assumed): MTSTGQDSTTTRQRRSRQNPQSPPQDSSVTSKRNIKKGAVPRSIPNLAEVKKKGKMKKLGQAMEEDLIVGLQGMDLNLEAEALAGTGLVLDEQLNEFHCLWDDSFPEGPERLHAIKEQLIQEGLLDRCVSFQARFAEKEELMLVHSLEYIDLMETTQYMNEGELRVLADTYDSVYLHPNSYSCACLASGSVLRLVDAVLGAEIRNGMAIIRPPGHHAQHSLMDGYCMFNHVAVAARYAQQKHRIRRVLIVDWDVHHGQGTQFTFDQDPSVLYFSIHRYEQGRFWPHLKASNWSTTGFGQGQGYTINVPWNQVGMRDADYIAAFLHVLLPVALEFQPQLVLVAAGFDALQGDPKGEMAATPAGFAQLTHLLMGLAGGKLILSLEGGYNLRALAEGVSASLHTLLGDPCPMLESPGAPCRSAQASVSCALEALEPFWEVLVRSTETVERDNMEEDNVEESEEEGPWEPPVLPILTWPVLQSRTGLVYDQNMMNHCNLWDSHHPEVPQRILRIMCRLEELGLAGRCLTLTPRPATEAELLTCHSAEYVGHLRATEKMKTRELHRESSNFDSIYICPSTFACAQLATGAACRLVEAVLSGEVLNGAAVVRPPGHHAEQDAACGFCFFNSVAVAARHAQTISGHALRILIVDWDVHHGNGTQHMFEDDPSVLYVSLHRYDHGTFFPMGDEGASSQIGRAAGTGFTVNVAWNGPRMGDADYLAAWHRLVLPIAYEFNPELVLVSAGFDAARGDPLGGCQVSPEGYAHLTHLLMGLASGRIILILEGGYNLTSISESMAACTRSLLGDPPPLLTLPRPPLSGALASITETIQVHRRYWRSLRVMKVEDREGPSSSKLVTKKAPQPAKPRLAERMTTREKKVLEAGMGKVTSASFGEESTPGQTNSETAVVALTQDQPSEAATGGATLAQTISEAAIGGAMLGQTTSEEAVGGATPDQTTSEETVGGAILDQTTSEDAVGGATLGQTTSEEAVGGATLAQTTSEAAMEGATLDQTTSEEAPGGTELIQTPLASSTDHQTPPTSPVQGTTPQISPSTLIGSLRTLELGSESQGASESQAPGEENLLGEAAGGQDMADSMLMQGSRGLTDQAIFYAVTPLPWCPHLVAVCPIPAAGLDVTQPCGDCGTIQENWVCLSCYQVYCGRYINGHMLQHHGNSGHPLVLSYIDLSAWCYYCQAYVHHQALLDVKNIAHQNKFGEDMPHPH
Protocol: as §1, §2, §3

[1] = Microsomal stability and clearance; assay type: in vitro ADME, human, mouse; settings: microsomal stability; Table 4
Protocol: Measure of Microsomal Stability and Clearance with Compounds of this Invention
Verapamil (positive control) and compound solution, both at 10 mM, are diluted 200 fold. There are six reaction time points in the experiment (0 min, 5 min, 15 min, 30 min, 45 min, and 60 min), and triplicate samples are used for each data point. There are controls for time zero and negative drug effect (negative control containing no incubation buffer or enzyme). For each compound or Verapamil sample, there are also samples treated with compound or Verapamil at concentrations of no positive effect (at 5 μM and 2.5 μM, respectively). Diluted positive control (Verapamil) and compound solution are mixed with pre-heated (37° C.) incubation buffer (100 mM potassium phosphate buffer, NADPH regeneration system solution B, NAPDH regeneration system solution A, HLM/MLM in Milli-Q ultrapure water), and incubated at 37° C. for 10 min. 100 μL of stop solution mixture is (containing 80% acetonitrile, and 20% DMSO, both of HPLC grade) is dispensed into wells of separate sampling plates into each well. At each reaction time point (0 min, 5 min, 15 min, 30 min, 45 min, and 60 min) 50 μL of reaction solution is taken from wells in the incubation plate and transferred to its corresponding well in the sampling plate, and mixed by pipetting up and down with stop solution already added there. The sampling plates are then covered, placed on ice, and centrifuged at 2,000 rpm at 4° C. for 15 min. 100 μL supernatant is then taken from each well to LC/MS analysis (or stored at 4° C. in refrigerator until analysis).
Data analysis: % remaining of compound is calculated by area of each time point with respect to time 0% remaining against time (min) curve is plotted using the first-phase exponential decay equation y=y0e(−kT) on the Prism 4.0. Results are shown in the format of TOP, K, t1/2 (min), R2 value and % remaining against time curve.

PC-3 = assay: Xenograft model, PC-3; assay type: in vivo, mouse; settings: i.p., 15 days
[2] = Table 3, read-out: IC50 (nM) HDACs
[3] = Table 4, read-out: HDAC enzyme inhibition activity IC50

Compound	IC50 (HDACs; [2])	IC50 (HDACs; [3])	IC50 (HDAC6; Table 3, read-out: IC50 (nM) HDAC6)	half-life [1]	T/C(%) PC-3 (PC-3; 200 mg/kg)	T/C(%) PC-3 (PC-3; 80 mg/kg)	IC50 (HDAC6)	T/C(%) PC-3 (PC-3; 30 mg/kg)
CCCCCNc1cc(/C=C/C(=O)NO)ccc1SCCN(CC)CC [Example 2, 3-(4-(2-(diethylamino)ethylthio)-3-(pentylamino)phenyl)-N-hydroxy-acrylamide]	21 nM	21000 nM	578 nM	1.8 h	43% (200,15)	–	–	–
O=C(CCCCCCC(=O)Nc1ccccc1)NO [SAHA, suberoylanilide hydroxamic acid, reference compound]	–	–	–	1.6 h	–	37% (80,15)	–	–
CCCCc1nc2cc(/C=C/C(=O)NO)ccc2n1CCN(CC)CC [SB939, reference compound]	18 nM	18000 nM	–	1.9 h	–	–	488 nM	>60% (30,15)
